Measurements from patent US20250011881A1, “MYC-HSF1 DUAL AMPLIFICATION AS A BIOMARKER FOR CANCER TREATMENT” (The Trustees of Indiana University, priority 2023, published 2025).
“And” between values parts separate entries of the source, which are not always exact repeats. Equal values may be shown once. Where a name gives a salt, the structure may show the parent alone.

Tested on: ovarian cancer cells with (OVCAR8, OVCAR4) or without (OVSAHO, CAOV3) MYC-HSF1 amplification
Assay: Epigenetic inhibitor drug screen, cell viability (Cell Titer Blue)
Type: cell-based
Conditions: not given

Compound | Non Amp - AMP (POC) 10 uM
C=C1C(=O)O[C@@H](CCC)[C@@H]1C(=O)O [Butyrolacetone 3] | 9.966 POC
CO[C@@]12[C@H](COC(N)=O)C3=C(C(=O)C(C)=C(N)C3=O)N1C[C@@H]1N[C@@H]12 [Mitomycin C] | 14.14 POC
CC(C)(O)/C=C/C(=O)[C@](C)(O)[C@H]1[C@H](O)C[C@@]2(C)[C@@H]3CC=C4[C@@H](C=C(O)C(=O)C4(C)C)[C@]3(C)C(=O)C[C@]12C [Cucurbitacin I] | 0.02387 POC
Cc1ccc(-n2sc3ccccc3c2=O)cc1 [PBIT] | −46.19 POC
Oxamflatin | 24.33 POC
CCCC(=O)[O-].[Na+] [Sodium butyrate] | −0.4466 POC

Same assay, conditions: 10 µM

Compound | Non Amp - AMP (POC) 10 uM
COc1ccc(Cn2ccc3ccc(C(=O)NO)cc32)cc1 [PCI 34051] | −4.834 POC
COc1cc2c(NC3CCN(C(C)C)CC3)nc(N3CCC(F)(F)CC3)nc2cc1OCCCN1CCCC1 [UNC 0642] | 6.253 POC

Same assay, conditions: 10 uM, 48 hrs; average relative cell viability (vs 1% DMSO) of non-amplified cells (OVSAHO, CAOV3) minus that of MYC-HSF1 amplified cells (OVCAR8, OVCAR4); positive = greater response in amplified cells

Compound | Non Amp - AMP (POC) 10 uM
Cn1ncnc1C1c2n[nH]c(=O)c3cc(F)cc(c23)NC1c1ccc(F)cc1 (centres unmarked) [BMN-673 8R, 9S] | −2.489 POC
CCS(=O)(=O)N1CCN(c2ccc(Nc3ncc(C(N)=O)c(NC4CC4)n3)cc2)CC1 [Cerdulatinib (PRT062070), Cerdulatinib] | −1.406 POC
O=C(/C=C/c1ccccc1)NC(NC(=S)Nc1ccc(Cl)cc1)C(Cl)(Cl)Cl (centres unmarked) [Sal 003] | −16.28 POC
CN1CCc2c(c3ccccc3n2Cc2ccc(C(=O)NO)cc2)C1.Cl [Tubastatin A HCl] | 19.35 POC
Nc1nc(Nc2ccc(S(N)(=O)=O)cc2)nn1C(=O)c1c(F)cccc1F [JNJ-7706621] | −15.24 POC
CCN(CC)Cc1cc(Nc2ccnc3cc(Cl)ccc23)ccc1O [Amodiaquine dihydrochloride dihydrate] | −0.1196 POC
O=C(Nc1nc2cccc(-c3ccc(CN4CCS(=O)(=O)CC4)cc3)n2n1)C1CC1 [GLPG0634] | 15.53 POC
O=C(O)CCNc1cc(N2CCc3ccccc3CC2)nc(-c2ccccn2)n1 [GSK-J1 (sodium salt)] | 8.487 POC
CC(C)N(CCCNC(=O)Nc1ccc(C(C)(C)C)cc1)C[C@H]1O[C@@H](n2ccc3c(N)ncnc32)[C@H](O)[C@@H]1O [EPZ004777] | 6.632 POC
Cn1cc(CCn2cnc(-c3cnn(C)c3)c2-c2ccc(C#N)cc2)cn1 [BAZ2-ICR] | 13.57 POC
O=S(=O)(NCCSSCCNS(=O)(=O)c1cc(Cl)ccc1Cl)c1cc(Cl)ccc1Cl [KC7F2] | −3.553 POC
CC(C)OC(=O)CCC/C=C\C[C@@H]1[C@@H](CC[C@@H](O)CCc2ccccc2)[C@H](O)C[C@@H]1O [Latanoprost] | −8.842 POC
O=C(NCC1(c2nc(-c3ccccc3)cs2)CCOCC1)c1cccc(-c2noc(C(F)(F)F)n2)c1 [TMP269] | 16.29 POC
CC(C)c1cccc(=O)c(O)c1 [Hinokitiol] | −6.718 POC
O=c1ccc2ccccc2o1 [Coumarin] | 5.809 POC
COc1cc2c(NC3CCN(C4CCCCC4)CC3)nc(N3CCCN(C(C)C)CC3)nc2cc1OCCCN1CCCCC1 [UNC 0646] | 45.25 POC
O=C1C(=Cc2cccnc2)C(=O)c2ccccc21 [PRT4165] | 1.398 POC
O=P(O)(O)OC(CO)CO [β-Glycerophosphate (sodium salt hydrate), β-Glycerophosphate] | 2.069 POC
O=C([O-])CCC(O)C(=O)[O-].[Na+].[Na+] (centres unmarked) [a-hydroxyglutaric Acid (sodium salt), a-hydroxyglutaric Acid] | 3.785 POC
O=C(NCc1ccccc1)c1c(/N=C/c2c(O)ccc3ccccc23)sc2c1CCCC2 [JGB1741] | 9.247 POC
CS(=O)(=O)c1ccc(-c2nnc(/C=C/c3nnc(-c4ccc(C#N)cc4)o3)n2-c2ccccc2Cl)nc1 [G007-LK] | −1.13 POC
NC(=O)c1cccc2[nH]c(-c3ccc([C@@H]4CCCN4)cc3F)nc12 [A-966492] | 13.6 POC
O=C1NC(=O)/C(=C/c2cccc(C(F)(F)F)c2)S1 [SMI-4a] | −1.184 POC

Compound | Non Amp - AMP (POC) 10 uM
N#Cc1ccc(-c2csc(NN=C3CCCC3)n2)cc1 [Remodelin] | 13.34 POC
O=S(=O)(c1cccc2cnccc12)N1CCCNCC1 [Fasudil (HA-1077) HCl, Fasudil] | 15.8 POC
CCOC(=O)C1=CN(Cc2ccccc2)C=C(C(=O)OCC)C1c1ccccc1 [BML-278] | 4.191 POC
Oc1nc(-c2ccc(C(F)(F)F)cc2)nc2c1CSCC2 [XAV-939] | −6.034 POC
Cc1nn(C)cc1CN1CCC(c2ccc(C(=O)Nc3ccccc3N)cc2)CC1 [CXD101] | 83.35 POC
CCS(=O)(=O)N1CCC([C@@H](C)n2c(C)c(C(=O)NCc3c(OC)cc(C)[nH]c3=O)c3ccccc32)CC1 [CPI-169] | 3.906 POC
C#Cc1cccc(Nc2ncnc3cc(OC)c(OCCCCCCC(=O)NO)cc23)c1 [CUDC-101] | 28.26 POC
CC1=CC(=O)c2c(O)cccc2C1=O [Plumbagin] | 4.102 POC
CNNCc1ccc(C(=O)NC(C)C)cc1 [Procarbazine HCl] | 1.149 POC
O=C(Nc1c[nH]nc1-c1nc2ccc(CN3CCOCC3)cc2[nH]1)NC1CC1 [AT9283] | −1.133 POC
Cn1cc(C(=O)Nc2ccc3c(c2)OCCO3)c2ccccc2c1=O [CeMMEC1] | −1.809 POC
COc1cc2ncnc(Nc3ccc(O)cc3)c2cc1OC [JANEX-1] | −13.67 POC
Inauhzin | −0.3441 POC
CN1CCc2c(c3ccccc3n2Cc2ccc(C(=O)NO)cc2)C1 [Tubastatin A] | 15.75 POC
CN1CCCN(C(=O)c2cccc(-c3ccc(/C=C4/C(=O)Nc5ccc(Cl)cc54)o3)c2)CC1 [CX-6258] | −7.528 POC
Cc1cc(/N=N/c2ccc(S(=O)(=O)Nc3ccccn3)cc2)c(N)cc1O [MS436] | 8.852 POC
CO[C@@H](C(=O)N1Cc2n[nH]c(NC(=O)c3ccc(N4CCN(C)CC4)cc3)c2C1)c1ccccc1 [Danusertib (PHA-739358), Danusertib] | −1.72 POC
CCS(=O)(=O)N1CC(CC#N)(n2cc(-c3ncnc4[nH]ccc34)cn2)C1.O=P(O)(O)O [Baricitirib phosphate] | 7.373 POC
AZD1152 | −6.485 POC
N#Cc1c(O)c2c(-c3ccc(-c4ccccc4O)cc3)csc2[nH]c1=O [A-769662] | −2.694 POC
O=C1c2c(O)ccc(O)c2C(=O)c2c(NCCNCCO)ccc(NCCNCCO)c21 [Mitoxantrone HCl] | 11.28 POC
CC1(C)C(=O)N=C2C1=C(O)C(=O)c1ccccc12 [BVT 948] | 22.87 POC

Same assay, conditions: 10 uM, 48 hrs; average relative cell viability (vs 1% DMSO) of non-amplified cells (OVSAHO, CAOV3) minus that of MYC-HSF1 amplified cells (OVCAR8, OVCAR4); positive = greater response in amplified cells; 10 µM

Compound | Non Amp - AMP (POC) 10 uM
O=C(CCCCCCC(=O)Nc1ccccc1)NO [Vorinostat (SAHA, MK0683), Vorinostat] | 37.32 POC
COc1ccc2c(c[n+](C)c3c4cc5c(cc4ccc23)OCO5)c1OC [Chelerythrine] | −18.62 POC
COc1cccc2c1C(=O)c1c(O)c3c(c(O)c1C2=O)C[C@@](O)(C(=O)CO)C[C@@H]3O[C@H]1C[C@H](N)[C@H](O)[C@H](C)O1 [Doxorubicin (Adriamycin) HCl, Doxorubicin] | 3.26 POC
O=C(/C=C/c1ccc(CN(CCO)CCc2c[nH]c3ccccc23)cc1)NO [LAQ824, Dacinostat] | 43.86 POC
CCCc1cc2c(N3CCN(C4=NCC(C)(C)S4)CC3)ncnc2s1 [MI-2] | 8.542 POC
O=C(CCCCCN1C(=O)c2cccc3cccc(c23)C1=O)NO [Scriptaid] | 45.24 POC and 29.99 POC
CC(/C=C/C(=O)NO)=C\[C@@H](C)C(=O)c1ccc(N(C)C)cc1 [Trichostatin A] | 47.34 POC
O=Nc1ccc(O)c2ncccc12 [5-Nitroso-8-quinolinol] | 9.462 POC
CC(C)C(=O)SCCCCCCC(=O)Nc1nc(-c2ccccc2)cs1 [NCH-51] | 27.52 POC
O=Nc1ccc(O)c2ncccc12 [NSC 3852] | 27.71 POC
Nc1nccc2c1ncn2[C@@H]1C=C(CO)[C@@H](O)[C@H]1O [3-Deazaneplanocin A (DZNep) hydrochloride] | 8.136 POC
C[C@]1(c2nc3c(C(N)=O)cccc3[nH]2)CCCN1 [ABT-888 (Veliparib), Veliparib] | −1.058 POC

Same assay, conditions: 10 uM, 48 hrs; average relative cell viability (vs 1% DMSO) of non-amplified cells (OVSAHO, CAOV3) minus that of MYC-HSF1 amplified cells (OVCAR8, OVCAR4); positive = greater response in amplified cells; listed as LAQ824 (NVP-LAQ824, Dacinostat), 10 µM

Compound | Non Amp - AMP (POC) 10 uM
O=C(/C=C/c1ccc(CN(CCO)CCc2c[nH]c3ccccc23)cc1)NO [LAQ824, Dacinostat] | 28.82 POC

Same assay, conditions: 10 uM, 48 hrs; average relative cell viability (vs 1% DMSO) of non-amplified cells (OVSAHO, CAOV3) minus that of MYC-HSF1 amplified cells (OVCAR8, OVCAR4); positive = greater response in amplified cells; listed as NCH 51, 10 µM

Compound | Non Amp - AMP (POC) 10 uM
CC(C)C(=O)SCCCCCCC(=O)Nc1nc(-c2ccccc2)cs1 [NCH-51] | 9.119 POC

Same assay, conditions: 10 uM, 48 hrs; average relative cell viability (vs 1% DMSO) of non-amplified cells (OVSAHO, CAOV3) minus that of MYC-HSF1 amplified cells (OVCAR8, OVCAR4); positive = greater response in amplified cells; listed as SAHA, 10 µM

Compound | Non Amp - AMP (POC) 10 uM
O=C(CCCCCCC(=O)Nc1ccccc1)NO [Vorinostat (SAHA, MK0683), Vorinostat] | 44.79 POC

Same assay, conditions: 10 uM, 48 hrs; average relative cell viability (vs 1% DMSO) of non-amplified cells (OVSAHO, CAOV3) minus that of MYC-HSF1 amplified cells (OVCAR8, OVCAR4); positive = greater response in amplified cells; listed as Trichostatin A (TSA), 10 µM

Compound | Non Amp - AMP (POC) 10 uM
CC(/C=C/C(=O)NO)=C\[C@@H](C)C(=O)c1ccc(N(C)C)cc1 [Trichostatin A] | 28.28 POC

Same assay, conditions: listed as PCI-34051, 10 µM

Compound | Non Amp - AMP (POC) 10 uM
COc1ccc(Cn2ccc3ccc(C(=O)NO)cc32)cc1 [PCI 34051] | −22.68 POC

Same assay, conditions: listed as UNC0642, 10 µM

Compound | Non Amp - AMP (POC) 10 uM
COc1cc2c(NC3CCN(C(C)C)CC3)nc(N3CCC(F)(F)CC3)nc2cc1OCCCN1CCCC1 [UNC 0642] | −5.587 POC
